This note sets out measurements from patent publication US7696246B2 (Ligand Pharmaceuticals Incorporated, priority 1999, dated 2010).

pEC50, pIC50, pKi: −log10 of the molar value.

The target in test [1] is T1, human AR (Homo sapiens, UniProt P10275).
T1 sequence (P10275 1-920): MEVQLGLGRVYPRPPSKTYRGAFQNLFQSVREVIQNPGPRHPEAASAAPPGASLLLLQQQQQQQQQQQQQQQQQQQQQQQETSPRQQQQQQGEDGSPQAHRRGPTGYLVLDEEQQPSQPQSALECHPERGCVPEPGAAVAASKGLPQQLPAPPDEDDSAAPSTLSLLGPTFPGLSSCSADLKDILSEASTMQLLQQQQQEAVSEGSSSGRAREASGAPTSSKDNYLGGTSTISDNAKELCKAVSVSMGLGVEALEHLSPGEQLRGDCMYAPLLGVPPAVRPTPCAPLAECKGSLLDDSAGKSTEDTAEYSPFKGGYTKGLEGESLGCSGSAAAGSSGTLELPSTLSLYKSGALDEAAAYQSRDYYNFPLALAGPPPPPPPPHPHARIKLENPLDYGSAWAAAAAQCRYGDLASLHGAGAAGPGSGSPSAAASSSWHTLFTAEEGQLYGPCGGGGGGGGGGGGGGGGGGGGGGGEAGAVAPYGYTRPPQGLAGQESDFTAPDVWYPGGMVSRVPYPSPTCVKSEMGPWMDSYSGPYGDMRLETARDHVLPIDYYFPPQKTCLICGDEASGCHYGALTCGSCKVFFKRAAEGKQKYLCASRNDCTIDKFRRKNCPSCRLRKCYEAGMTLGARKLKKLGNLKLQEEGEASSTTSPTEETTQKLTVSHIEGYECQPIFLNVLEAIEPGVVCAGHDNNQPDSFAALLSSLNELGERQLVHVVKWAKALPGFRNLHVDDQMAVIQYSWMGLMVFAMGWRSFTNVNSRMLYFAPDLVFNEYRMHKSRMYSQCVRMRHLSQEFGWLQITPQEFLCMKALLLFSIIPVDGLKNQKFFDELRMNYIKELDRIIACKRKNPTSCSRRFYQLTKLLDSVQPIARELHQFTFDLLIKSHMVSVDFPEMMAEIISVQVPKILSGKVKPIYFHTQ
The test is described as follows: AR whole cell competitive binding assay (COS-1 cells, 3H-DHT). The following applies: 1 nM 3H-DHT, Cheng-Prusoff.
Protocol: AR Binding: For the whole cell binding assay, COS-1 cells in 96-well microtiter plates containing DMEM-10% FBS were transfected as described above with the following plasmid DNA: pRShAR (2 ng/well), pRS-β-Gal (50 ng/well) and pGEM (48 ngcwell). Six hours after transfection, media was removed, the cells were washed with PBS and fresh media was added. The next day, the media was changed to DMEM-serum free to remove any endogenous ligand that might be complexed with the receptor in the cells.
Three replicates were used for each sample. […] The remaining media was removed, the cells were washed three times with PBS to remove unbound ligand, and cells were lysed with a Triton X-100-based buffer.
For the saturation analyses, the difference between the total binding and the nonspecific binding, normalized by the β-Gal rate, was defined as specific binding. […] The Ki values were determined by application of the Cheng-Prusoff equation to the IC50 values, where:
After correcting for non-specific binding, IC50 values were determined. […] The IC50 value was determined graphically from a log-logit plot of the data. The Ki values were determined by application of the Cheng-Prusoff equivuation to the IC50 values, the labeled ligand concentration and the Kd of the labeled ligand.

Test [2] addresses T1, human AR. The test is described as follows: Co-transfection assay, AR agonist activity (CV-1 cells, MTV-LUC reporter). The following applies: CV-1 cells; for pEC50: agonist potency EC50; for AR Agonist CV-1 Cells Efficacy (%): percent maximal response relative to reference agonist DHT. In kind it is cell-based.
The target in test [3] is T1, human AR. The test is described as follows: Co-transfection assay, AR antagonist activity (CV-1 cells, in presence of DHT). The settings on record: for AR Antagonist CV-1 Cells Efficacy (%): percent maximal inhibition, DHT at its EC50; for pIC50: read-out: AR Antagonist CV-1 Cells Potency. It is filed as cell-based.

With `C=CCN(CC1CC1)c1ccc2[nH]c(=O)cc(C(F)(F)F)c2c1` [Compound 285, 6-(N-Allyl-N-cyclopropylmethyl)amino-4-trifluoromethyl-2(1H)-quinolinone], the pKi on human AR [1] was 8.21. Also, on human AR [2], the pEC50 was 9.00 and the “AR Agonist CV-1 Cells Efficacy (%)” value is 111%. For the same molecule, on human AR [3], the “AR Antagonist CV-1 Cells Efficacy (%)” value is “na (na = not active (i.e. efficacy of <20 and potency of >10,000))”; the pIC50 is less than 5.00.

`CC1(C)CC(=O)Nc2ccc(N(CC(F)(F)F)CC(F)(F)F)cc21` [Compound 501, 3,4-Dihydro-4,4-dimethyl-6-(bis-N,N-2,2,2-trifluoroethyl)amino-2(1H)-quino-linone]: the pKi at human AR [1] was 7.80. Besides, at human AR [2], the pEC50 was 8.24 and the “AR Agonist CV-1 Cells Efficacy (%)” value is listed as 110%. Also, at human AR [3], the “AR Antagonist CV-1 Cells Efficacy (%)” value was “na (na = not active (i.e. efficacy of <20 and potency of >10,000))”; the pIC50 was less than 5.00.

Turning to `CCCOc1c(NCC(F)(F)F)ccc2[nH]c(=O)cc(C(F)(F)F)c12` [Compound 602, 6-(N-2,2,2-Trifluoroethyl)amino-5-propyloxy-4-trifluoromethyl-2(1H)-quinolinone], at human AR [1], the pKi was 7.35. This molecule gave a pEC50 on human AR [2] of less than 5.00. Besides, on human AR [3], the “AR Antagonist CV-1 Cells Efficacy (%)” value was 85% and the pIC50 is 7.57.

For `CC1CCCCN1c1ccc2[nH]c(=O)cc(C(F)(F)F)c2c1` (racemic) [Compound 314, (±)-6-(2-Methyl-1-piperidino)-4-trifluoromethyl-2(1H)-quinolinone], the pKi at human AR [1] is 8.34. Further, on human AR [2], the pEC50 was 8.28 and the “AR Agonist CV-1 Cells Efficacy (%)” value stood at 83%. Besides, on human AR [3], the “AR Antagonist CV-1 Cells Efficacy (%)” value was “na (na = not active (i.e. efficacy of <20 and potency of >10,000))”; the pIC50 was less than 5.00.

At human AR [1], `O=c1cc(C(F)(F)F)c2cc(N3CCCCC3CO)ccc2[nH]1` (racemic) [Compound 331, (±)-6-(2-Hydroxymethyl-1-piperidino)-4-trifluoromethyl-2(1H)-quinolinone] had a negative-log Ki (pKi) of less than 6.00. Further, at human AR [2], the pEC50 is 7.68 and the “AR Agonist CV-1 Cells Efficacy (%)” value came to 44%. Further, on human AR [3], the “AR Antagonist CV-1 Cells Efficacy (%)” value is 42% and the pIC50 is 8.24.

As for `C=CCN(CC=C)c1ccc2[nH]c(=O)cc(C(F)(F)F)c2c1` [Compound 280, 6-Diallylamino-4-trifluoromethyl-2(1H)-quinolinone], at human AR [1], the pKi was 8.62. At human AR [2], the pEC50 is 8.66 and the “AR Agonist CV-1 Cells Efficacy (%)” value was 78%. For the same molecule, on human AR [3], the “AR Antagonist CV-1 Cells Efficacy (%)” value is “na (na = not active (i.e. efficacy of <20 and potency of >10,000))”; the pIC50 was less than 5.00.

As for `O=c1cc(C(F)(F)F)c2cc(C3=CCCCC3)ccc2[nH]1` [Compound 630, 6-Cyclohexenyl-4-trifluoromethyl-2(1H)-quinolinone], the pKi on human AR [1] is 6.96. On human AR [2], the pEC50 is 6.66 and the “AR Agonist CV-1 Cells Efficacy (%)” value worked out at 30%. At human AR [3], the “AR Antagonist CV-1 Cells Efficacy (%)” value came out at 67% and the pIC50 was 7.89.

For the molecule `CC(C)c1ccc2[nH]c(=O)cc(C(F)(F)F)c2c1` [Compound 615, 6-Isopropyl-4-trifluoromethyl-2(1H)-quinolinone], the pKi on human AR [1] was 7.25. In addition, on human AR [2], the pEC50 was 5.55 and the “AR Agonist CV-1 Cells Efficacy (%)” value turned out to be 23%. In addition, on human AR [3], the “AR Antagonist CV-1 Cells Efficacy (%)” value worked out at 82% and the pIC50 is 7.32.

For the molecule `O=c1cc(C(F)(F)F)c2cc(N3CCCC[C@@H]3CCl)ccc2[nH]1` [Compound 433, (−)R-6-(2-Chloromethyl-1-piperidino)-4-trifluoromethyl-2(1H)-quinolinone], on human AR [1], the pKi is 8.82. Besides, at human AR [2], the pEC50 is 8.19 and the “AR Agonist CV-1 Cells Efficacy (%)” value turned out to be 120%. At human AR [3], the “AR Antagonist CV-1 Cells Efficacy (%)” value is “na (na = not active (i.e. efficacy of <20 and potency of >10,000))”; the pIC50 is less than 5.00.

At human AR [1], `CC(C)c1ccc2c(c1)CN(C)C(=O)N2` [Compound 721, 3,4-Dihydro-6-isopropyl-3-methyl-2(1H)-quinazolinone] had a pKi of less than 6.00. This molecule also gave a pEC50 at human AR [2] of less than 5.00. For the same molecule, on human AR [3], the “AR Antagonist CV-1 Cells Efficacy (%)” value came to 85% and the pIC50 is 7.49.

In the case of `O=c1cc(C(F)(F)F)c2cc(C3=CCCCCC3)ccc2[nH]1` [Compound 633, 6-Cycloheptenyl-4-trifluoromethyl-2(1H)-quinolinone], at human AR [1], the pKi was 7.01. In addition, at human AR [2], the pEC50 was 7.42 and the “AR Agonist CV-1 Cells Efficacy (%)” value is on record as 33%. Moreover, on human AR [3], the “AR Antagonist CV-1 Cells Efficacy (%)” value came out at 51% and the pIC50 is 8.12.

The molecule `CSCC1CCCCN1c1ccc2[nH]c(=O)cc(C(F)(F)F)c2c1` (racemic) [Compound 426, (±)-6-(2-Thiomethoxymethyl-1-piperidino)-4-trifluoromethyl-2(1H)-quinolinone] gave a pKi on human AR [1] of 7.55. At human AR [2], the pEC50 is 7.35 and the “AR Agonist CV-1 Cells Efficacy (%)” value was determined as 93%. For the same molecule, at human AR [3], the “AR Antagonist CV-1 Cells Efficacy (%)” value is “na (na = not active (i.e. efficacy of <20 and potency of >10,000))”; the pIC50 is less than 5.00.

Regarding `O=c1cc(C(F)(F)F)c2cc(N3CCc4ccccc43)ccc2[nH]1` [Compound 347, 6-(1-Indolino)-4-trifluoromethyl-2(1H)-quinolinone], at human AR [1], the pKi is 6.01. The pEC50 at human AR [2] was less than 5.00. In addition, on human AR [3], the “AR Antagonist CV-1 Cells Efficacy (%)” value turned out to be 89% and the pIC50 is 7.23.

On to `O=c1cc(C(F)(F)F)c2cc(N3CCCCC3CCOCc3ccc(C(F)(F)F)cc3)ccc2[nH]1` (racemic) [Compound 449, (±)-6-(2-(4-Trifluoromethyl)benzyloxyethyl-1-piperidino)-4-trifluoromethyl-2(1H)-quinolinone], for which, at human AR [1], the pKi was 8.08. Moreover, on human AR [2], the pEC50 is 7.80 and the “AR Agonist CV-1 Cells Efficacy (%)” value stood at 83%. For the same molecule, on human AR [3], the “AR Antagonist CV-1 Cells Efficacy (%)” value was “na (na = not active (i.e. efficacy of <20 and potency of >10,000))”; the pIC50 was less than 5.00.

At human AR [1], `O=c1cc(C(F)(F)F)c2cc(-c3cccc(F)c3)ccc2[nH]1` [Compound 741, 4-Trifluoromethyl-6-(3-fluorophenyl)-2(1H)-quinolinone] gave a pKi of 6.49. Besides, on human AR [2], the pEC50 was less than 5.00. In addition, on human AR [3], the “AR Antagonist CV-1 Cells Efficacy (%)” value was found to be 92% and the pIC50 was 7.57.

`CC(C)CN(c1ccc2[nH]c(=O)cc(C(F)(F)F)c2c1)C(C)C(F)(F)F` (racemic) [Compound 290, (±)-6-(N-Isobutyl-N-2,2,2-trifluoroisopropyl)amino-4-trifluoromethyl-2(1H)-quinolinone] showed a pKi on human AR [1] of less than 6.00. At human AR [2], the pEC50 was 7.49 and the “AR Agonist CV-1 Cells Efficacy (%)” value amounted to 37%. Besides, at human AR [3], the “AR Antagonist CV-1 Cells Efficacy (%)” value amounted to 50% and the pIC50 was 7.30.

`CCC(CC)c1ccc2[nH]c(=O)cc(C(F)(F)F)c2c1` [Compound 647, 6-(1-Ethylpropyl)-4-trifluoromethyl-2(1H)-quinolinone] gave a pKi on human AR [1] of 7.09. Moreover, at human AR [2], the pEC50 is 6.63 and the “AR Agonist CV-1 Cells Efficacy (%)” value is 42%. Moreover, at human AR [3], the “AR Antagonist CV-1 Cells Efficacy (%)” value came to 64% and the pIC50 is 7.51.

At human AR [1], `O=c1cc(C(F)(F)F)c2cc(-c3ccccc3)ccc2[nH]1` [Compound 764, 4-Trifluoromethyl-6-phenyl-2(1H)-quinolinone] showed a pKi of 7.80. The molecule further showed a pEC50 at human AR [2] of less than 5.00. Further, on human AR [3], the “AR Antagonist CV-1 Cells Efficacy (%)” value is given as 87% and the pIC50 is 7.52.

The molecule `C[C@@H]1C=C[C@H](C)N1c1ccc2[nH]c(=O)cc(C(F)(F)F)c2c1` [Compound 332, 6-(2,5-cis-Dimethyl-1-pyrrolino)-4-trifluoromethyl-2(1H)-quinolinone] gave a negative-log Ki (pKi) on human AR [1] of 7.72. For the same molecule, at human AR [2], the negative logarithm of the EC50 (pEC50) was 7.85 and the “AR Agonist CV-1 Cells Efficacy (%)” value was 121%. Further, on human AR [3], the “AR Antagonist CV-1 Cells Efficacy (%)” value was “na (na = not active (i.e. efficacy of <20 and potency of >10,000))”; the pIC50 is less than 5.00.

The molecule `O=c1cc(C(F)(F)F)c2cc(C3=CCCC3)ccc2[nH]1` [Compound 632, 6-Cyclopentenyl-4-trifluoromethyl-2(1H)-quinolinone] had a pKi on human AR [1] of 6.95. The pEC50 at human AR [2] is less than 5.00. Moreover, on human AR [3], the “AR Antagonist CV-1 Cells Efficacy (%)” value amounted to 75% and the pIC50 was 7.44.

The pKi is the negative decadic logarithm of the Ki, by convention in mol/L. Read a high pKi as a small Ki. The term pEC50 denotes the negative decadic logarithm of the EC50, by convention in mol/L.
